Test results: patent US11974969B2, “Artificially synthesized sphingosine derivative lipoid monomer and use of same for delivering nucleic acid” (INSTITUTE OF BASIC MEDICAL SCIENCES CHINESE ACADEMY OF …, priority 2018, dated 2024)

Tested on: HEK293T cells
Experiment: Flow cytometry (CFlow): delivery of FAM-labeled single-stranded PGY-sRNA-6 into HEK293T cells by different concentrations of single sphingosine derivative (Example 1)
Type: cell-based, human
Conditions: for delivery of single-stranded PGY-sRNA-6 into 293T cells (fluorescence shift compared to free uptake group): different concentrations: 3.75, 12.5, 37.5 μg single lipid, 0.1 nmol FAM-labeled sRNA, final 100 nM, 9 hours, flow cytometry; for Lipid delivery group (different concentrations of lipids) 3.75 μg/mL: single sphingosine derivative 3.75 μg/mL; for Lipid delivery group (different concentrations of lipids) 3.75 μg/mL / Lipid delivery group (different concentrations of lipids) 12.5 μg/mL / Lipid delivery group (different concentrations of lipids) 37.5 μg/mL: FAM-labeled PGY-ssRNA-6 100 nM, 293T cells, fluorescence shift by flow cytometry; for Lipid delivery group (different concentrations of lipids) 12.5 μg/mL: single sphingosine derivative 12.5 μg/mL; for Lipid delivery group (different concentrations of lipids) 37.5 μg/mL: single sphingosine derivative 37.5 μg/mL
Method: 2.1 5 μl of small RNA (Ribobio, 20 μM, as shown in Table 2) and 95 μL of DEPC (Sigma) treated water were added into a 1.5 ml EP tube and mixed well. Then a certain amount of single lipid or lipid composition in chloroform solution (as shown in Table 1) was added and fully mixed by sucking and blowing;
2.2 The system was fully mixed and was heated in a water bath at 90° C. for 15 minutes;
2.3 The system was taken out and cooled down to room temperature.
4.3 The human embryonic kidney cell line HEK293T and human monocyte THP-1 cells used in the experiment were cultured to logarithmic growth phase, and then plated into 12-well plates with a cell density of 6×10^5/1 mL medium/well. The 12-well plate (1 mL medium/well) was incubated overnight (12 h) at 37° C., followed by subsequent experiments.
4.4 The experiment groups were as follows: • 1) Naïve group: untreated cells. This group served as a blank control group. • 2) Free uptake group: […] of 5′-FAM labeled small RNA solution (storage concentration is 20 μM) was directly added. This group served as a negative control group; • 3) Lipid nucleic acid mixture treatment group: The mixture of the lipid prepared in step 2 and the 5′-FAM-labeled small RNA was added into the cells and mixed well. The final concentration of small RNA is 100 nM.
4.5 After co-incubation with cells for 6 h/9 h, the cells were washed three times with PBS. The cells were re-suspended with PBS (self-prepared). The flow cytometer Accuri® C6 instrument (purchased from BD, US) was used to detect the fluorescence intensity of the cells in the sample wells. Implementation method: the software CFlow Plus used in the flow cytometer Accuri® C6 instrument detection was opened, the instrument was washed with cleaning solution for 3 minutes, and then washed with double-distilled water for 5 minutes. The injection of blank group samples was started while setting the number of cells unlimited. The injection of Naïve group samples was stopped when the number of cells detected was 10000 events. The live cell group in the fluorescence spectrum (abscissa: FSC-A, ordinate: SSC-A) was circled as gate P1. With the number of cells set as limited, the detection was stopped when the number of cells in gate P1 reached 10000 events. The fluorescence shift value was obtained in the fluorescence spectrum (abscissa: fluorescence channel FLA-1, ordinate: SSC-A).
1) Conditions of the boiling method: to 100 μL FAM-labeled single-stranded PGY-sRNA-6 solution was added corresponding amount of lipid solution, and heated at 90° C. for 15 min;
2) Experimental conditions: the final concentration of small RNA was 100 nM. 9 hours after being added to the cells, the amount of single-stranded PGY-sRNA-6 that entered into the cells was compared by detecting the fluorescence shift using flow cytometry technology. For the detailed protocols, see “Flow cytometry technology (CFlow) determined the uptake amount of nucleic acid that is delivered into cells by lipid”. All experiments were performed in triplicates.

Row | SMILES | delivery of single-stranded PGY-sRNA-6 into 293T cells (fluorescence shift compared to free uptake group) | Lipid delivery group (different concentrations of lipids) 3.75 μg/mL | Lipid delivery group (different concentrations of lipids) 12.5 μg/mL | Lipid delivery group (different concentrations of lipids) 37.5 μg/mL
1 | CCCCCCCCCCCCCCC[C@H](O)[C@H](N)CO [So-46, C18 L-erythro Sphinganine (d18:0)] | deliver | 0.20% | 0.30% | 6.90%
2 | CCC/C=C\CCCCCCCCCC[C@@H](O)[C@H](C)N [So-7, 14Z-1-Deoxysphingosine (d18:1)] | deliver | 1.20% | 0.20% | 4.30%
3 | CCCCCCCCCCCCC/C=C/[C@@H](O)[C@H](CO[C@@H]1O[C@H](CO)[C@H](O)[C@H](O)[C@H]1O)NC(=O)CCCCCCCCCCCCCC [So-61, N-[(1S,2R,3E)-1-[(β-D-galactopyranosyloxy)methy1]-2-hydroxy-3-heptadecen-1-yl]-pentadecanamide] | deliver | 7.40% | 8.10% | 7.00%
4 | [2H]C([2H])([2H])C([2H])([2H])C([2H])([2H])C([2H])([2H])CCCCCCCCC/C=C/[C@@H](O)[C@@H](N)CO [So-74, (2S,3R,E)-aminooctadec-4-ene-15,15,16,16,17,17,18,18,18-d9-1,3-diol] | deliver | 4.00% | 3.10% | 6.60%
5 | CCCCCCCCCCCCC/C=C/[C@@H](O)[C@H](CO)NC(=O)CCCCCCCCCCC [So-62, N-[(1S,2R,3E)-2-hydroxy-1-(hydroxymethyl)-3-heptadecen-1-yl]-dodecanamide] | deliver | 6.60% | 6.50% | 7.10%
6 | CCCCCCCCCCCCC/C=C/[C@@H](O)[C@H](CO)N(C)C [So-4, N,N-Dimethylsphingosine (d18:1)] | deliver | 1.70% | 2.20% | 0.00%
7 | CCCCCCCCCCCCC/C=C/[C@@H](O)[C@@H](N)CO[C@@H]1O[C@H](CO)[C@@H](O)[C@H](O)[C@H]1O [So-49, 1-β-D-Glucosylsphingosine (synthetic)] | deliver | 0.50% | 1.70% | 7.40%
8 | CCCCCCCCCCCCC/C=C/[C@@H](O)[C@@H](N)COP(=O)(O)O [So-5, Sphingosine-1-Phosphoric Acid] | deliver | 2.80% | 1.60% | 2.40%
9 | CCCCCCCCCCCCC/C=C/[C@@H](O)[C@@H](N)CO [So-26, D-erythro-Sphingosine C-18] | deliver | 0.20% | 3.80% | 0.50%
10 | CCCCCCCCCC/C=C/[C@@H](O)[C@@H](N)CO [So-73, 2S-amino-4E-pentadecene-1,3R-diol] | deliver | 3.20% | 4.60% | 9.50%
